According to patent publication US20050004084A1, “Aspirin-containing trasdermal pharmaceutical composition for the treatment of calcification” (priority 2001, published 2005):

How the values were obtained:
[1] = Examination of the metabolism of acetylsalicylic acid: ASA and SA in plasma by HPLC after gel applied onto skin; format: in vivo, New Zealand giant white rabbits; details: for concentration at 0 h / concentration at 0.25 h / concentration at 0.5 h / concentration at 0.75 h / concentration at 0.75 hour / concentration at 1 h / concentration at 1.5 h / concentration at 2 h / concentration at 3 h / concentration at 4 h: pH 6.5, Salicylic acid and acetysalicylic acid contents of blood samples
Description: The tests were performed on 6 week old male New Zealand giant white rabbits. […] The hair was shaved off from the backs of the rabbits, and 0.6 g of a gel with the following composition was applied onto the skin:
Blood samples were taken periodically as indicated in Table 1 from the jugular veins of the animals, the samples were centrifuged to separate the plasma, and the acetylsalicylic acid (ASA) and salicylic acid (SA) contents of the samples were measured by HPLC. The centrifuged plasma was stored at −22° C. until the time of analysis in order to avoid any ex vivo metabolism due to the presence of esterases in the plasma.
The above test was repeated on the same animals with the difference that 0.01 g of sodium carbonate was also added to the gel and the gel was buffered to pH 6.5.

[2] = Urine analyses on rabbits kept on specific calcium-rich diet; format: in vivo
Description: From the data of Table 2 it appears that the amount of acetylsalicylic acid present in the blood of the animals stabilized after a short induction period. […] This test was performed on healthy animals, where no dissolution of calcification and no formation of calcium acetylsalicylate due to the dissolution took place.

[3] = male, New Zealand giant white, rabbit, in vivo
[4] = male, New Zealand giant white, rabbit, in vivo, 0 h, pH 6.5
[5] = male, New Zealand giant white, rabbit, in vivo, 0.75 h, pH 6.5
[6] = male, New Zealand giant white, rabbit, in vivo, 0.75 hour, pH 6.5
[7] = male, New Zealand giant white, rabbit, in vivo, Salicylic acid and acetysalicylic acid contents of blood samples

| Compound | Salicylic acid and acetysalicylic acid contents of blood samples [1, 4] | Salicylic acid and acetysalicylic acid contents of blood samples [1, 5] | Salicylic acid and acetysalicylic acid contents of blood samples [1, 6] | concentration at 0.75 hours [1, 7] [ng/mL] | concentration at 0 h [1, 3] [ng/mL] | concentration at 0.25 h [1, 3] [ng/mL] | concentration at 0.5 h [1, 3] [ng/mL] | concentration at 0.75 h [1, 3] [ng/mL] | concentration at 0.75 hour [1, 3] [ng/mL] | concentration at 1 h [1, 3] [ng/mL] | concentration at 1.5 h [1, 3] [ng/mL] | concentration at 2 h [1, 3] [ng/mL] | concentration at 3 h [1, 3] [ng/mL] | concentration at 4 h [1, 3] [ng/mL] | also measured |
| --- | --- | --- | --- | --- | --- | --- | --- | --- | --- | --- | --- | --- | --- | --- | --- |
| CC(=O)Oc1ccccc1C(=O)O [ASA, acetylsalicylic acid] | 0 μg/ml of plasma | 9.68 μg/ml of plasma | 8.84 μg/ml of plasma | 115 | 0 | 570 | 5240 | 9440 | 7900 | 7700 | 7120 | 6980 | 5650 | 4550 | time within which acetylsalicylic acid metabolizes in the body to salicylic acid and acetic acid [1, 3]: ≤ 15 min; Salicylic acid and acetysalicylic acid contents of blood samples ([1]; male, New Zealand giant white, rabbit, in vivo, 0 hours): 0 μg/ml of plasma; Salicylic acid and acetysalicylic acid contents of blood samples ([1]; male, New Zealand giant white, rabbit, in vivo, 1.75 hours): 0.136 μg/ml of plasma; acetylsalicylic acid remained un-metabolized ([1]; male, New Zealand giant white, rabbit, in vivo, 4 h, pH 6.5): 25%; concentration at 0 hours [1, 7]: 0 ng/mL; concentration at 1 hours [1, 7]: 98 ng/mL; concentration at 1.75 hours [1, 7]: 76 ng/mL; concentration at 2 hours [1, 7]: 163 ng/mL; Salicylic acid and acetysalicylic acid contents of blood samples ([1]; rabbit, in vivo): BLD; metabolism of acetylsalicylic acid (observation) ([1]; rabbit, in vivo, pH 6.5): extreme slow down in the metabolism; start of metabolism of acetylsalicylic acid ([1]; rabbit, in vivo, pH 6.5): third-fourth hour |
| calcium acetylsalicylate | – | – | – | – | – | – | – | – | – | – | – | – | – | – | excretion / further metabolism [2]: can no longer be metabolized but is excreted from the organism in unchanged form |
| O=C(O)c1ccccc1O [SA, salicylic acid] | 0 μg/ml of plasma | 2.54 μg/ml of plasma | 1.97 μg/ml of plasma | 40800 | 0 | 900 | 980 | 2810 | 2100 | 3020 | 2690 | 3110 | 7980 | 12200 | Salicylic acid and acetysalicylic acid contents of blood samples ([1]; Rabbit 1, 0 hours, 0.6 g gel without carbonate on skin): BLD; Salicylic acid and acetysalicylic acid contents of blood samples ([1]; Rabbit 2, 0 hours, 0.6 g gel without carbonate on skin): BLD; Salicylic acid and acetysalicylic acid contents of blood samples ([1]; Rabbit 3, 0 hours, 0.6 g gel without carbonate on skin): BLD; Salicylic acid and acetysalicylic acid contents of blood samples ([1]; Rabbit 4, 0 hours, 0.6 g gel without carbonate on skin): BLD; salicylic acid content of the blood samples relative to the acetylsalicylic acid content ([1]; gel without carbonate, Table 1): at least one hundredfold |
